Read-outs that look alike come from different tables or passages of the source.
Legend:
[1] = 1- to 5-day PK with topical ocular Compound-I formulations (Example 5); settings: Dutch Belted, rabbit, aqueous humor, Average Concentration of Compound-I, Dutch Belted rabbits, topical ocular q.d. or b.i.d., 24 hr post-dose, Group per row, LLOQ 0.000903 μM
Method: All doses were administered within ±1 hour of the scheduled dose time. On day 1, Groups 1, 2, 4-6, 8, 10, 11, 13, 15, and 17 received one dose (q.d.) for either one (1) or four (4) days. […] Animals in Groups 18 and 19 received b.i.d dosing of vehicle only formulations for five (5) consecutive days.
Ocular sampling occurred for Group 1 at 0.5, 1, 2, 4, 8, or 24 hours post-dose relative to the day 1 dose. Ocular sampling occurred for Groups 2 and 6 at 1, 8, and 24 hours post-dose relative to the day 5 morning dose. Ocular sampling for Groups 3, 7, 8, 11, and 13 occurred at 1 and 24 hours post-dose relative to the day 5 morning dose. Ocular sampling for Groups 4, 9, 10, 12, 14, 15, 16, and 17 occurred at 1 hour post-dose relative to the day 5 morning dose. Group 5 ocular sampling occurred at 0.5, 1, 2, 4, 8, and 24 hours post-dose relative to the day 1 dose. Animals in Groups 18 and 19 were followed only by clinical observations for five (5) days.
Aqueous humor, cornea, central and peripheral retina, and central and peripheral choroid samples were collected. Aqueous humor, cornea, central retina, and central choroid samples were then assayed. Peripheral retina and peripheral choroid samples were assayed only for Groups 1-8, 12, 14, and 16 per study protocol.
Rabbit aqueous humor, cornea, central and peripheral retina, and central and peripheral choroid samples were analyzed.

[2] = tested on: human tumor xenographs; experiment: Human tumor xenographs in athymic mice; format: in vivo; settings: systemic administration
[3] = PK with topical ocular Compound-I in sodium phosphate-based Gel Drop; format: in vivo; settings: Dutch-belted rabbits
Excerpt: The Gel Drop of Compound-I was applied to eyes of Dutch-belted rabbits.
The Gel Drop formulations (listed in Table 6) differed in several aspects, such as API concentration, sodium phosphate concentration, presence or absence of tonicity (glycerin) or preservative (benzalkoniumchloride/BAK) agents, solubilizing surfactants (polysorbate 80, tyloxapol, and/or poloxamer), and pH.

[4] = Solubility of Compound-I in cyclodextrin ophthalmic solution; format: physicochemical; settings: HP-β-CD at ≥1:6 molar ratio or SBE-β-CD at ≥1:2 ratio
[5] = 5-day PK with topical ocular Compound-I in cyclodextrin-based solutions (Example 6); format: in vivo; settings: HPβCD solutions, Dutch-Belted rabbits, q.d.; 24 hr after first daily dose on day 4 (Groups 5b, 6b); LLOQ 0.0218 μM
Method: All doses were administered with ±1 hour of the scheduled dose time, except on day 1 for Groups 1, 4, and 10. The first dose on day 1 was administered at 12:00 PM, and the second dose (for Groups 1 and 10) was administered approximately 4 hours after. This was due to delayed arrival of formulations. All other dosing for these groups was as scheduled. On day 1, Groups 4-8, and 11-12 received one dose (q.d.) for four (4) days. On days 1 through 4, Groups 1-3, and 9-10 received b.i.d. dosing approximately 8 hours apart for four (4) days.
Ocular sampling occurred one hour following the first daily dose on day 5 for all groups, except Groups 5b and 6b, where ocular sampling occurred 24 hours after the first daily dose on day 4.
Blood samples for plasma collection were obtained just prior to scheduled euthanasia for all animals. […] Cornea, central retina, and central choroid samples from groups 1-12 were assayed. Aqueous humor, peripheral retina, and peripheral choroid samples were not assayed.

[6] = pKa (water) of Compound-I drug substance; format: physicochemical
Excerpt: (§1) The embodiments provide three formulations of Compound-I or its free base—the Formula II compound.

[7] = target: recombinant FGFR-2 tyrosine kinase (Homo sapiens (Human), UniProt P21802); experiment: Inhibition of recombinant FGFR-2 tyrosine kinase using exogenous substrate; format: biochemical
recombinant FGFR-2 tyrosine kinase, sequence (P21802 22-821): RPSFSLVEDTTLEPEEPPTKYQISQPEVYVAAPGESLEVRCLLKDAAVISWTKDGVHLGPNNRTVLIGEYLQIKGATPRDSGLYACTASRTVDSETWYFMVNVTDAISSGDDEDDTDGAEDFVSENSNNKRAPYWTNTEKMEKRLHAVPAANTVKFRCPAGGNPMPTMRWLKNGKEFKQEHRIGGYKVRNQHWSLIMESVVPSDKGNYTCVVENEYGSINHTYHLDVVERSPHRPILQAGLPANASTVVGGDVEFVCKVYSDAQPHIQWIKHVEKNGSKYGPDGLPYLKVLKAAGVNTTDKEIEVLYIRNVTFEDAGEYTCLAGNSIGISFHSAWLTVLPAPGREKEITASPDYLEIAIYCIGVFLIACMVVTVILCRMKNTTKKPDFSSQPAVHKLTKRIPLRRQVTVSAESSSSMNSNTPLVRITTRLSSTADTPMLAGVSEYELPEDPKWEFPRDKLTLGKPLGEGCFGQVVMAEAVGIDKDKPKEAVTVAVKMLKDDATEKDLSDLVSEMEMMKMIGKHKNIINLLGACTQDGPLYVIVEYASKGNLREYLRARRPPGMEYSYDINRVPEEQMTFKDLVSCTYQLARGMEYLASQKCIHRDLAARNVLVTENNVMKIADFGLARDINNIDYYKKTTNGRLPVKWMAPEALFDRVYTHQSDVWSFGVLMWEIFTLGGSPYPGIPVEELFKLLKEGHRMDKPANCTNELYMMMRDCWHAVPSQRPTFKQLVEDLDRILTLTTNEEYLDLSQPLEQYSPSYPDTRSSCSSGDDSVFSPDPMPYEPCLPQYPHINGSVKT

[8] = tested on: pathologic angiogenesis; experiment: Systemic administration in murine cornea and rat growth plate models; format: in vivo
[9] = Ocular fluid and tissue concentrations, 0.4% Compound-I cyclodextrin solutions (Example 7, 24-day study); format: in vivo, Dutch-Belted rabbits; settings: Dutch-Belted, rabbit, topical
Method: The ocular solution of Compound-I comprising cyclodextrin was prepared and tested in different groups of animals.

[10] = Solubility of Compound-I drug substance; format: physicochemical
Excerpt: as §1

[11] = tested on: pathologic retinal and choroidal neovascularization; experiment: Topical ocular delivery in rodent models of retinal and choroidal neovascularization; format: in vivo
[12] = target: FGFR-4 (Homo sapiens (Human), UniProt P22455); experiment: In vitro inhibition of tyrosine kinases; format: biochemical
FGFR-4, sequence (P22455 22-802): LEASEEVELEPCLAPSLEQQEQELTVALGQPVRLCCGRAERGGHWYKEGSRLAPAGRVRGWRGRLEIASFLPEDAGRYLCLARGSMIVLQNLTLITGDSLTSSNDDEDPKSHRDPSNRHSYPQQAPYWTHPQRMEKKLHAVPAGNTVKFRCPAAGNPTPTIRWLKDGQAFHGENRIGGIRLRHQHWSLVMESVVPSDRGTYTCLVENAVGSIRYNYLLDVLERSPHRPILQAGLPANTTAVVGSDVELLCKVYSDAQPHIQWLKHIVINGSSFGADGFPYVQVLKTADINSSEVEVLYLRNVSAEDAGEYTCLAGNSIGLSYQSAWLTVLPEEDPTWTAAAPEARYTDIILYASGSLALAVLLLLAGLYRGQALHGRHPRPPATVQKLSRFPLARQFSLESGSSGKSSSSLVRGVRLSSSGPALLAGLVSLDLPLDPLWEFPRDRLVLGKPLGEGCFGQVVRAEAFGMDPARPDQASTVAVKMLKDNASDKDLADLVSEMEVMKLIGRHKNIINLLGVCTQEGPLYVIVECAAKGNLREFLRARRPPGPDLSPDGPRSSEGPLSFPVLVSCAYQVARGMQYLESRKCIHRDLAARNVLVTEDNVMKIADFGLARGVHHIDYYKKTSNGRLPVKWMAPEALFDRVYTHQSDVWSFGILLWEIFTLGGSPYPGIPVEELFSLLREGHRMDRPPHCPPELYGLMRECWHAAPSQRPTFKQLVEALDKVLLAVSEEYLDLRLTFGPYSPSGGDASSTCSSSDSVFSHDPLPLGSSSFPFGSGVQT

[13] = design: species or system Dutch-Belted rabbits and beagle dogs; settings: in vivo
Excerpt: Animals that received topical ocular administration of the tromethamine-based suspension were able to tolerate up to higher level of the active agent concentration in the formulation, as compared to equimolar formulations of the sodium phosphate-based Gel Drop.
Overall, the combination of decreased corneal exposure and corresponding improved ocular tolerability, while simultaneously maintaining or promoting drug delivery to the posterior segment target tissues, along with improved physicochemical stability, will provide greater benefit to patients compared to the ophthalmic Gel Drop formulation.
Retinal function was normal in all test article and vehicle treated groups during full-field electroretinograms performed in rabbits.

[14] = Ocular tissue concentrations, 0.3% Compound-I ophthalmic gel drop twice daily (toxicology study); format: in vivo, Dutch-Belted rabbits
[15] = target: KDR (VEGFR-2) (Homo sapiens (Human), UniProt P35968); experiment: In vitro inhibition of tyrosine kinases; format: biochemical; settings: 300 nM (170.67 ng/mL)
KDR (VEGFR-2), sequence (P35968 20-1356): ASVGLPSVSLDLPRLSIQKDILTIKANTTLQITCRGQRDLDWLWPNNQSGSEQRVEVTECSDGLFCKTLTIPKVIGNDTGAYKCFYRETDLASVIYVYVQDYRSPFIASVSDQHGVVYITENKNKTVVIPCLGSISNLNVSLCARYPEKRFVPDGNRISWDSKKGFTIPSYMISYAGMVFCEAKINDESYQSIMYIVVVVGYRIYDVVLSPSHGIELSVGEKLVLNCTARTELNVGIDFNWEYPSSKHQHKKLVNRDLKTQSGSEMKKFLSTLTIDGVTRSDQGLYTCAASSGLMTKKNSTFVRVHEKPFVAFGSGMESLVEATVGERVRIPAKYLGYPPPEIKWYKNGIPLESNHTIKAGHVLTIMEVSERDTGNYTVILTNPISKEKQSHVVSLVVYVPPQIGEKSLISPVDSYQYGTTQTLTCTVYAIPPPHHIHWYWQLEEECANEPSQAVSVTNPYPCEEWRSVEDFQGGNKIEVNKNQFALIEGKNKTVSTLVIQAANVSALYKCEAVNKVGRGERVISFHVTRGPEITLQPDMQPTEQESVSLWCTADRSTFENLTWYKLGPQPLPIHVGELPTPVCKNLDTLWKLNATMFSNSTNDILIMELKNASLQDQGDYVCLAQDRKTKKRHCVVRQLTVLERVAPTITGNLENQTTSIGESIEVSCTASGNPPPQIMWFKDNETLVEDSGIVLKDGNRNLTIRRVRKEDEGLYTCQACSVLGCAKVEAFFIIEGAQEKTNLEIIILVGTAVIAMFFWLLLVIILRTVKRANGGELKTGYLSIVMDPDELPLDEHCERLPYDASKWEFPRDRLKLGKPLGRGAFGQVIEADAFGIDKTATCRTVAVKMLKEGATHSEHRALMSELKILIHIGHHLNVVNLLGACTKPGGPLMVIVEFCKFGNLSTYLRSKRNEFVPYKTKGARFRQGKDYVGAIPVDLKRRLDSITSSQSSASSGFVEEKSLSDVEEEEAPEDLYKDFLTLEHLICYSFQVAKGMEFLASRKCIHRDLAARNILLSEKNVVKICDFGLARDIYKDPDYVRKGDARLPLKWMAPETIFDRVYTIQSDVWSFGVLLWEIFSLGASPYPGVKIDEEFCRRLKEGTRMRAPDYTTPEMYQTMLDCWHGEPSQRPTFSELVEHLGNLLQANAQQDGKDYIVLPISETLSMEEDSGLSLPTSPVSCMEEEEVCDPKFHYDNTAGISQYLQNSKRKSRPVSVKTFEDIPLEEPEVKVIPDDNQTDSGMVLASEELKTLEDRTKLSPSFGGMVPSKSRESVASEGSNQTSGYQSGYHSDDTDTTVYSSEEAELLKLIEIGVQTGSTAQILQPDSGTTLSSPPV

[16] = target: FGFR-2 (Homo sapiens (Human), UniProt P21802); experiment: In vitro inhibition of tyrosine kinases; format: biochemical
FGFR-2, sequence (P21802 22-821): as the sequence (P21802 22-821) above

[17] = design: species or system Dutch-belted rabbits; settings: rabbit, in vivo
[18] = 10-point titration curve (257 nM-5000 nM)
[19] = Dutch-Belted (rabbit), beagle (dog), rabbit, dog
[20] = 0.3% Ophthalmic Gel Drop, Twice Daily 29 days
[21] = 0.3% ophthalmic gel drop with and without benzylalkonium chloride, twice daily, Dutch-Belted rabbits

Structure (SMILES): Cl.NC(=O)c1c(OCc2c(F)cc(Br)cc2F)nsc1NC(=O)NCCCCN1CCCC1 [Compound-I, 3-[(4-bromo-2,6-difluorophenyl)methoxy]-5-[[[[4-(1-pyrrolidinyl)butyl]amino]carbonyl]amino]-4-isothiazolecarboxamide hydrochloride]
- concentration at 24 h [1]: 5.18 nM
- Inhibition of growth of human tumor xenographs [2]: shown to inhibit
- Delivery of Compound-I to posterior segment tissues [3]: dose-dependent and dose-frequency dependent
- Compound-I dose strengths solubilised by cyclodextrin [4]: 0.1-1.0%
- Average Concentration, Central Retina [5]: <LLOQ
- pKa [6]: 10.5
- IC50 [7]: 8.79 nM
- IC50, recombinant FGFR-2 tyrosine kinase ([7]; hydrochloride): 5 ng/mL and (5) ng/mL
- Inhibition of pathologic angiogenesis [8]: shown to inhibit
- concentration at 1 h ([9]; aqueous humor, 0.4 % (4 mg/mL), 30 μL/eye, Average concentration of Compound-I, Aqueous Humor, Group 8: 0.4% Compound-I in 8.41% KLEPTOSE HPB, 0.142% phosphate, 30 μL/eye, 2 doses per day): 6.56 nM
- concentration at 1 h ([9]; aqueous humor, 0.4 % (4 mg/mL), 30 μL/eye, Average concentration of Compound-I, Aqueous Humor, Group 9: 0.4% Compound-I in […] KLEPTOSE HPB, 0.142% phosphate, 30 μL/eye, 2 doses per day): 3.13 nM
- concentration at 1 h ([9]; aqueous humor, 0.4 % (4 mg/mL), 30 μL/eye, Average concentration of Compound-I, Aqueous Humor, Group 10: 0.4% Compound-I in 4.88% CAPTISOL, 0.142% phosphate, 30 μL/eye, 2 doses per day): 1.84 nM
- concentration at 1 h ([9]; aqueous humor, 0.4 % (4 mg/mL), 30 μL/eye, Average concentration of Compound-I, Aqueous Humor, Group 11: 0.4% Compound-I in 4.88% CAPTISOL, […] phosphate, 30 μL/eye, 2 doses per day): 4.03 nM
- concentration at 1 h ([9]; aqueous humor, 0.4 %, Aqueous humor concentration of Compound-I (range over groups), 0.4% Compound-I cyclodextrin solutions (KLEPTOSE or CAPTISOL), twice daily): 3.13 to 6.56 nM
- concentration at 1 h ([9]; central choroid, 0.4 %): 259 to 769 nM
- concentration at 1 h ([9]; central choroid, 0.4 % (4 mg/mL), 0.4% Ophthalmic Solution (CAPTISOL), Twice Daily 24 days, read-out: Central Choroid [Compound I]): 212 nM
- concentration at 1 h ([9]; central choroid, 0.4 % (4 mg/mL), 0.4% Ophthalmic Solution (KLEPTOSE HP), Twice Daily 24 days, read-out: Central Choroid [Compound I]): 259 nM
- concentration at 1 h ([9]; central choroid, 0.4 % (4 mg/mL), 0.4% Ophthalmic Solution (KLEPTOSE HPB), Twice Daily 24 days, read-out: Central Choroid [Compound I]): 769 nM
- concentration at 1 h ([9]; central choroid, 0.4 % (4 mg/mL), 30 μL/eye, Average concentration of Compound-I, Central Choroid, Group 8: 0.4% Compound-I in 8.41% KLEPTOSE HPB, 0.142% phosphate, 30 μL/eye, 2 doses per day): 769 nM
- concentration at 1 h ([9]; central choroid, 0.4 % (4 mg/mL), 30 μL/eye, Average concentration of Compound-I, Central Choroid, Group 9: 0.4% Compound-I in […] KLEPTOSE HPB, 0.142% phosphate, 30 μL/eye, 2 doses per day): 259 nM
- concentration at 1 h ([9]; central choroid, 0.4 % (4 mg/mL), 30 μL/eye, Average concentration of Compound-I, Central Choroid, Group 10: 0.4% Compound-I in 4.88% CAPTISOL, 0.142% phosphate, 30 μL/eye, 2 doses per day): 212 nM
- concentration at 1 h ([9]; central choroid, 0.4 % (4 mg/mL), 30 μL/eye, Average concentration of Compound-I, Central Choroid, Group 11: 0.4% Compound-I in 4.88% CAPTISOL, […] phosphate, 30 μL/eye, 2 doses per day): 345 nM
- concentration at 1 h ([9]; central retina, 0.4 % (4 mg/mL), 30 μL/eye, Average concentration of Compound-I, Central Retina, Group 8: 0.4% Compound-I in 8.41% KLEPTOSE HPB, 0.142% phosphate, 30 μL/eye, 2 doses per day): 124 nM
- concentration at 1 h ([9]; central retina, 0.4 % (4 mg/mL), 30 μL/eye, Average concentration of Compound-I, Central Retina, Group 9: 0.4% Compound-I in […] KLEPTOSE HPB, 0.142% phosphate, 30 μL/eye, 2 doses per day): 74.1 nM
- concentration at 1 h ([9]; central retina, 0.4 % (4 mg/mL), 30 μL/eye, Average concentration of Compound-I, Central Retina, Group 10: 0.4% Compound-I in 4.88% CAPTISOL, 0.142% phosphate, 30 μL/eye, 2 doses per day): 53.1 nM
- concentration at 1 h ([9]; central retina, 0.4 % (4 mg/mL), 30 μL/eye, Average concentration of Compound-I, Central Retina, Group 11: 0.4% Compound-I in 4.88% CAPTISOL, […] phosphate, 30 μL/eye, 2 doses per day): 101 nM
- concentration at 1 h ([9]; central retina, 0.4 %, Central retina concentration of Compound-I (range over groups), 0.4% Compound-I cyclodextrin solutions (KLEPTOSE or CAPTISOL), twice daily): 53.1 to 124 nM
- concentration at 1 h ([9]; cornea, 0.4 %): 6490 to 30000 nM
- concentration at 1 h ([9]; cornea, 0.4 % (4 mg/mL), 0.4% Ophthalmic Solution (CAPTISOL), Twice Daily 24 days, read-out: Cornea [Compound I]): 6490 nM
- concentration at 1 h ([9]; cornea, 0.4 % (4 mg/mL), 0.4% Ophthalmic Solution (KLEPTOSE HP), Twice Daily 24 days, read-out: Cornea [Compound I]): 8050 nM
- concentration at 1 h ([9]; cornea, 0.4 % (4 mg/mL), 0.4% Ophthalmic Solution (KLEPTOSE HPB), Twice Daily 24 days, read-out: Cornea [Compound I]): 12300 nM
- concentration at 1 h ([9]; cornea, 0.4 % (4 mg/mL), 30 μL/eye, Average concentration of Compound-I, Cornea, Group 8: 0.4% Compound-I in 8.41% KLEPTOSE HPB, 0.142% phosphate, 30 μL/eye, 2 doses per day): 12300 nM
- concentration at 1 h ([9]; cornea, 0.4 % (4 mg/mL), 30 μL/eye, Average concentration of Compound-I, Cornea, Group 9: 0.4% Compound-I in […] KLEPTOSE HPB, 0.142% phosphate, 30 μL/eye, 2 doses per day): 8050 nM
- concentration at 1 h ([9]; cornea, 0.4 % (4 mg/mL), 30 μL/eye, Average concentration of Compound-I, Cornea, Group 10: 0.4% Compound-I in 4.88% CAPTISOL, 0.142% phosphate, 30 μL/eye, 2 doses per day): 6490 nM
- concentration at 1 h ([9]; cornea, 0.4 % (4 mg/mL), 30 μL/eye, Average concentration of Compound-I, Cornea, Group 11: 0.4% Compound-I in 4.88% CAPTISOL, […] phosphate, 30 μL/eye, 2 doses per day): 30000 nM
- solubility ([10]; 0.1N HCl, simulated gastric fluid): 40 µg/mL
- solubility ([10]; 0.1N NaOH, aqueous buffer): 50 µg/mL
- solubility ([10]; acetonitrile, organic solvent or mixture): 40 µg/mL
- solubility ([10]; aqueous buffer, pH 7.5 (0.05M NaH2PO4)): 1000 µg/mL
- solubility ([10]; aqueous buffer, pH 9.0 (0.05m Na2HPO4)): 700 µg/mL
- solubility ([10]; deionized water, water): 500 to 1200 µg/mL
- solubility ([10]; ethanol, organic solvent or mixture): 700 µg/mL
- solubility ([10]; hexanes, organic solvent or mixture): < 10 µg/mL
- solubility ([10]; methanol, organic solvent or mixture): 4300 µg/mL
- solubility ([10]; tetrahydrofuran, organic solvent or mixture): 20 µg/mL
- Inhibition of pathologic retinal and choroidal neovascularization [11]: significant inhibition
- IC50, FGFR-4 ([12]; 10-point titration curve): (284.45) ng/mL
- IC50 [12, 18]: 500 nM
- Corneal exposure of ophthalmic solution lower than equimolar ophthalmic gel drops [13, 19]: 5 to 10 fold
- Corneal tissue exposure with ophthalmic gel drops [13, 19]: ≥ 100 µM
- Alterations of deeper structures of the eye or optic nerve, ophthalmic gel drops [13]: No untoward alterations
- Clinical or histopathologic findings with ophthalmic solution [13]: free of untoward clinical or histopathologic findings
- Central Choroid [Compound I] [14, 20]: 0.340 µM
- Cornea [Compound I] [14, 20]: 236.00 µM
- Mean ocular tissue concentration, aqueous humor [14, 21]: 0.0197 to 0.0395 µM
- Mean ocular tissue concentration, peripheral choroid [14, 21]: 2.79 to 4.10 µM
- Mean ocular tissue concentration, peripheral retina [14, 21]: 0.150 to 0.309 µM
- Mean % Inhibition at 300 nM Compound-I, KDR (VEGFR-2) [15]: completely inhibited
- IC50 [16, 18]: 3.08 nM
- IC50, FGFR-2 ([16]; 10-point titration curve, hydrochloride): 1.75 ng/mL and (1.75) ng/mL
- Reduction of corneal exposure with suspension-based and cyclodextrin formulations ([17]; Dutch-belted): 10-100 ×
- Corneal concentrations with Gel Drop compared to Tris-based suspensions [17]: fifty-fold to hundred-fold higher
- Corneal concentrations with Gel Drop compared to cyclodextrin based solution [17]: five-fold to fifteen-fold higher

Source: patent publication US9446026B2, “Ocular formulations for drug-delivery to the posterior segment of the eye” (PanOptica, Inc., priority 2013, dated 2016)
